Test results: patent US8193369B2, “Benzimidazole cannabinoid agonists” (Janssen Pharmaceutica NV, priority 2007, dated 2012)

Tests used:
[1] = CB1 related side-effects: body temperature lowering, LAD; type: in vivo
Description: CB1 related undesired side-effects such as lowering of body temperature, flat body posture, and mydriasis were measured for a number of compounds of the present invention and a number of compounds covered by reference WO-2006/048754.

[2] = target: T1, human CB2 (hCB2) receptor (Homo sapiens, UniProt P34972); assay: Inhibition of forskolin-activated cAMP production upon activation of human CB2 receptor (HTRF); type: cell-based; details: CHO-K1 cells stably transfected with hCB2; 15 μM forskolin; pEC50=-log(EC50); relative to WIN55212-2
T1 construct: expressed in transfected cells; host or cells: CHO-K1
T1 sequence (P34972 whole entry): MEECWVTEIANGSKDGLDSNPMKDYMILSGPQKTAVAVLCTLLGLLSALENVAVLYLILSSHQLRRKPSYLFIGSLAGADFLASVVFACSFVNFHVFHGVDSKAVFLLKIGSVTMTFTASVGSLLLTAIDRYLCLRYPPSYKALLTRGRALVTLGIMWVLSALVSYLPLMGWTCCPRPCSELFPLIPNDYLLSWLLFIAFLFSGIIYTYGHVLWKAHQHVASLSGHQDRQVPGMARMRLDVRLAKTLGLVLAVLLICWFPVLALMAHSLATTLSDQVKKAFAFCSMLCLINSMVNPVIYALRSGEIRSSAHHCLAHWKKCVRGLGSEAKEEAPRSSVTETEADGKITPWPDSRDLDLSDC
Description: D. Pharmacological Examples D.1 Inhibition of cAMP in Response to Activation of the Human CB2 Receptors
Functional activity of the test compounds was assessed by measuring their potency to inhibit forskolin-activated cAMP production upon activation of human CB2 (hCB2) receptor through homogenous time resolved fluorescence (HTRF) assays.
CHO-K1 cells stably transfected with hCB2 were grown up to 80-90% confluence in T175 Falcon flasks in DMEM/NUT MIX F-12 culture medium complemented with 2% Solution A (5.10^6 IU/l penicillin G, 5 g/l streptomycin sulphate, 5.5 g/l pyruvate, 14.6 g/l L-glutamine, 1M NaOH) and 10% foetal calf serum. Before the experiments, medium was removed, cells were washed with PBS/EDTA (140 mM NaCl, 1 mM Na2-EDTA, 8 mM Na2HPO4.2H2O, 8.5 mM KH2PO4, 2.7 mM KCl, 21 mM glucose), resuspended in stimulation buffer (HBSS 1×, IBMX 1 mM, Hepes 5 mM, MgCl2 10 mM, BSA 0.1%, pH 7.4). Cells were diluted to a concentration of 10^6 cells/ml for hCB2 experiments. Assays were performed using the cAMP Dynamic HTRF kit (CIS bio international, France) according to the recommendations of the manufacturer.
For CB2, each well of a 384 flat bottom black polystyrene assay plate (Costar) was filled with 10 μl stimulation buffer containing 15 μM forskolin and either test compound (in 3% DMSO), 3% DMSO or 10 μM Win55212-2 (in 3% DMSO). Then, 20 μl of the diluted hCB2-CHO-K1 cells was added (20,000 cells/well). After 30 minutes incubation in dark at room temperature, 10 μl cAMP-XL665 and 10 μl anti-cAMP cryptate (both at a final dilution of 1/100) was added to the cells.
After equilibration of the reaction mixtures for 1 to 24 hours in dark at room temperature, fluorescence was measured at 665 nm and 620 nm using a Discovery microplate fluorescence counter (Perkin Elmer), and the signal ratio of 665 nm/620 nm was calculated. The signal ratios of the test compounds were expressed relative to the signal ratios of the DMSO control (maximal signal ratio, no inhibition of cAMP) and WIN55212-2 for hCB2, respectively (minimal signal ratio, maximal inhibition of cAMP). From the dose response curves generated for each test compound, the dose at which 50% of the maximal inhibition of cAMP level is observed (EC50, expressed in the Table as pEC50=−log (EC50) values) and the level of inhibition reached with 10 μM of the test compound compared to WIN55212-2 (for hCB2) was calculated.

| SMILES | LAD (Lowest Acceptable Dose) at which lowering of body temperature was observed in more than half of the treated animals [1] [mg/kg] | melting point [°C] | EC50 [2] [nM] | CB2 pEC50 [2] |
| --- | --- | --- | --- | --- |
| CC(=O)N1CCC(Cn2c(C(C)(C)C)nc3cc(S(=O)(=O)CCCC(F)(F)F)ccc32)CC1 [Co. No. 3] | >40 |  |  |  |
| CC(=O)N1CCC(Cn2c(C(C)(C)C)nc3cc(S(=O)(=O)c4nccs4)ccc32)CC1 [compound 40] |  | 191 | 5.89 |  |
| CC(=O)N1CCC(Cn2c(C(C)(C)C)nc3cc(S(=O)(=O)c4ccncc4)ccc32)CC1 [Co. No. 34] | >40 |  |  |  |
| CCS(=O)(=O)c1ccc2c(c1)nc(C(C)(C)C)n2CC1CCN(C=O)CC1 [compound 28] |  | 188 to 190 | 23.4 |  |
| CC(=O)N1CCC(Cn2c(C(C)(C)C)nc3cc(S(=O)(=O)C4CCCC4)ccc32)CC1 [Co. No. 35] | >40 |  |  |  |
| COCCS(=O)(=O)c1ccc2c(c1)nc(C(C)(C)C)n2CC1CCN(C=O)CC1 [compound 27] |  | > 100 | 61.7 |  |
| CCC(=O)N1CCC(Cn2c(C(C)(C)C)nc3cc(S(=O)(=O)CCCC(F)(F)F)ccc32)CC1.Cl [compound 6] |  | > 100 |  | 7.72 |
| CC(=O)N1CCC(Cn2c(C(C)(C)C)nc3cc(S(=O)(=O)CC4CCC4)ccc32)CC1 [compound 43] |  | 155 | 8.71 |  |
| CC(C)(C)c1nc2cc(S(=O)(=O)CCCC(F)(F)F)ccc2n1CC1CCOCC1 [Co. No. B, reference compound] | 10 |  |  |  |
| COc1cccc(S(=O)(=O)c2ccc3c(c2)nc(C(C)(C)C)n3CC2CCN(C(C)=O)CC2)c1 [compound 82] |  | 164 | 2.19 |  |
| COC(=O)N1CCC(Cn2c(C(C)(C)C)nc3cc(S(=O)(=O)CCCC(F)(F)F)ccc32)CC1.Cl [compound 7] |  | > 100 |  | 7.77 |
| CC(=O)N1CCC(Cn2c(C(C)(C)C)nc3cc(S(=O)(=O)c4ccccc4Cl)ccc32)CC1 [compound 71] |  | 218 | 7.41 |  |
| COCC(=O)N1CCC(Cn2c(C(C)(C)C)nc3cc(S(=O)(=O)CCCC(F)(F)F)ccc32)CC1 [compound 9] |  | > 100 |  | 5.80 |
| CC(C)(C)c1nc2cc(S(=O)(=O)CCCO)ccc2n1CC1CCN(C=O)CC1 [compound 26] |  | > 100 | 8.91 |  |
| CCCC(CCC)S(=O)(=O)c1ccc2c(c1)nc(C(C)(C)C)n2CC1CCN(C(C)=O)CC1 [compound 67] |  | 132 | 2.75 |  |
| CC(=O)N1CCC(Cn2c(C(C)(C)C)nc3cc(S(=O)(=O)c4ccccn4)ccc32)CC1 [compound 53] |  | 205 | 2.95 |  |
| CCS(=O)(=O)c1ccc2c(c1)nc(C(C)(C)C)n2CC1CCS(=O)(=O)CC1 [Co. No. 29] | >40 |  |  |  |
| CC(C)(C)c1nc2cc(S(=O)(=O)CCCC(F)(F)F)ccc2n1CC1CCN(C=O)CC1 [compound 5] |  | > 100 |  | 8.62 |
| CC(=O)N1CCC(Cn2c(C(C)(C)C)nc3cc(S(=O)(=O)c4ccc(F)cc4)ccc32)CC1 [compound 59] |  | 186 | 2.75 |  |
| CC(=O)N1CCC(Cn2c(C(C)(C)C)nc3cc(S(=O)(=O)Cc4ccc(F)cc4)ccc32)CC1 [compound 25] |  | > 100 | 12.3 |  |
| CC(=O)N1CCC(Cn2c(C(C)(C)C)nc3cc(S(=O)(=O)c4c(Cl)cccc4Cl)ccc32)CC1 [compound 60] |  | 224 | 3.47 |  |
| CCS(=O)(=O)c1ccc2c(c1)nc(C(C)(C)C)n2CC1CCS(=O)(=O)CC1 [compound 29] |  | 194 | 27.5 |  |
| CC(=O)N1CCC(Cn2c(C(C)(C)C)nc3cc(S(=O)(=O)c4ccc(C(F)(F)F)cc4)ccc32)CC1 [compound 88] |  | 189 | 0.537 |  |
| CC(C)(C)c1nc2cc(S(=O)(=O)CCCC(F)(F)F)ccc2n1CC1CCN(C(=O)C(F)(F)F)CC1.Cl [compound 8] |  | > 100 |  | 7.64 |
| CCS(=O)(=O)c1ccc2c(c1)nc(CC(C)(C)C)n2CC1CCN(C(C)=O)CC1 [compound 46] |  | 152 to 155 | 53.7 |  |

| SMILES | LAD (Lowest Acceptable Dose) at which lowering of body temperature was observed in more than half of the treated animals [1] [mg/kg] | melting point [°C] | EC50 [2] [nM] | CB2 pEC50 [2] |
| --- | --- | --- | --- | --- |
| CC(=O)N1CCC(Cn2c(C(C)(C)C)nc3cc(S(=O)(=O)c4cccs4)ccc32)CC1 [compound 68] |  | 187 | 2.95 |  |
| CC(=O)N1CCC(Cn2c(C(C)(C)C)nc3cc(S(=O)(=O)c4ccncc4)ccc32)CC1 [compound 34] |  | 179 | 3.89 |  |
| CC(C)(C)c1nc2cc(S(=O)(=O)c3nccs3)ccc2n1CC1CCN(C=O)CC1 [compound 49] |  | 190 | 7.41 |  |
| CC(=O)N1CCC(Cn2c(C(C)(C)C)nc3cc(S(=O)(=O)c4ccc[n+]([O-])c4)ccc32)CC1 [compound 63] |  |  | 15.5 |  |
| CC(=O)N1CCC(Cn2c(C(C)(C)C)nc3cc(S(=O)(=O)c4cccc(C(F)(F)F)c4)ccc32)CC1 [compound 92] |  |  | 4.07 |  |
| CC(=O)N1CCC(Cn2c(C(C)(C)C)nc3cc(Sc4cccc(N(C)C)c4)ccc32)CC1 [compound 97] |  |  | 4.79 |  |
| CC(=O)N1CCC(Cn2c(C(C)(C)C)nc3cc(S(=O)(=O)c4cccnc4)ccc32)CC1 [compound 62] |  |  | 5.25 |  |
| CC(=O)N1CCC(Cn2c(C(C)(C)C)nc3cc(S(=O)(=O)c4cccc(Cl)c4)ccc32)CC1 [compound 90] |  | 192 | 0.741 |  |
| CCS(=O)(=O)c1ccc2c(c1)nc(CC(C)(C)C)n2CC1CCN(C=O)CC1 [compound 48] |  | 166 to 168 | 69.2 |  |
| CC(=O)N1CCC(Cn2c(C(C)(C)C)nc3cc(S(=O)(=O)c4cccc(N(C)C)c4)ccc32)CC1 [compound 98] |  |  | 4.57 |  |
| CC(C)(C)c1nc2cc(SCC3CC3)ccc2n1CC1CCN(C=O)CC1 [compound 37] |  |  | 1.32 |  |
| CC(=O)N1CCC(Cn2c(C(C)(C)C)nc3cc(S(=O)(=O)CCCC#N)ccc32)CC1 [compound 10] |  |  | 21.9 |  |
| CC(=O)N1CCC(Cn2c(C(C)(C)C)nc3cc(SCCCO)ccc32)CC1 [compound 13] |  |  | 8.71 |  |
| CC(C)(C)c1nc2cc(S(=O)(=O)CC3CC3)ccc2n1CC1CCS(=O)(=O)CC1 [compound 31] |  | 234 | 8.51 |  |
| CC(=O)N1CCC(Cn2c(C(C)(C)C)nc3cc(S(=O)(=O)CC4CC4)ccc32)CC1 [compound 24] |  | 150 | 9.33 |  |
| CC(=O)N1CCC(Cn2c(C(C)(C)C)nc3cc(S(=O)(=O)Cc4ccccc4)ccc32)CC1 [Co. No. 73] |  |  | 2.34 |  |
| CC(=O)N1CCC(Cn2c(C(C)(C)C)nc3cc(Sc4cccc(C(F)(F)F)c4)ccc32)CC1 [compound 91] |  |  | ~0.832 |  |
| COCCS(=O)(=O)c1ccc2c(c1)nc(C(C)(C)C)n2CC1CCN(C(C)=O)CC1 [compound 20] |  |  |  | 7.59 |
| CC(=O)N1CCC(Cn2c(C(C)(C)C)nc3cc(S(=O)(=O)CCc4ccc(F)cc4)ccc32)CC1 [compound 56] |  |  | 3.39 |  |
| CC(=O)N1CCC(Cn2c(C(C)(C)C)nc3cc(Sc4cccnc4)ccc32)CC1 [compound 54] |  |  | 2.29 |  |
| CC(=O)N1CCC(Cn2c(C(C)(C)C)nc3cc(S(=O)(=O)c4cccc(C#N)c4)ccc32)CC1 [compound 84] |  | 191 | 3.31 |  |
| CC(C)(C)c1nc2cc(S(=O)(=O)CC3CC3)ccc2n1CC1CCN(C=O)CC1 [compound 36] |  | 186 |  | 8.66 |
| CC(=O)N1CCC(Cn2c(C(C)(C)C)nc3cc(S(=O)(=O)c4c(C)cccc4C)ccc32)CC1 [compound 115] |  |  | ~8.32 |  |
| CC(=O)N1CCC(Cn2c(C(C)(C)C)nc3cc(S(=O)(=O)Cc4ccc([N+](=O)[O-])cc4)ccc32)CC1 [compound 69] |  |  | 5.89 |  |
| CC(=O)N1CCC(Cn2c(C(C)(C)C)nc3cc(Sc4c(Cl)cccc4Cl)ccc32)CC1 [compound 57] |  |  | 1.58 |  |
